Measurements reported in US8759332B2, “Hepatitis C virus inhibitors” (Enanta Pharmaceuticals, Inc., priority 2009, dated 2014).
pEC50: −log10 of the molar value.

Test system: HCV 1b genotype replicon
Experiment: HCV replicon assay (qRT-PCR or luciferase), genotype 1b
Format: cell-based
Settings: Hepatitis C virus, read-out: Genotype-1b replicon EC50 Range
From the text: HCV replicon cell lines (kindly provided by R. Bartenschlager) isolated from colonies as described by Lohman et. al. (Lohman et al. (1999) Science 285: 110-113, expressly incorporated by reference in its entirety) and used for all experiments. The HCV replicon has the nucleic acid sequence set forth in EMBL Accession No.: AJ242651, the coding sequence of which is from nucleotides 1801 to 8406.
The coding sequence of the published HCV replicon was synthesized and subsequently assembled in a modified plasmid pBR322 (Promega, Madison, Wis.) using standard molecular biology techniques. One replicon cell line (“SGR 11-7”) stably expresses HCV replicon RNA which consists of (i) the HCV 5′UTR fused to the first 12 amino acids of the capsid protein, (ii) the neomycin phosphotransferase gene (neo), (iii) the IRES from encephalomyocarditis virus (EMCV), and (iv) HCV NS2 to NS5B genes and the HCV 3′UTR. Another replicon cell line (“Huh-luc/neo-ET”) described by Vrolijk et. al. (Vrolijk et. al. (2003) Journal of Virological Methods 110:201-209, expressly incorporated by reference in its entirety) stably expresses HCV replicon RNA which consists of (i) the HCV 5′UTR fused to the first 12 amino acids of the capsid protein, (ii) the firefly luciferase reporter gene, (iii) the ubiquitin gene, (iv) the neomycin phosphotransferase gene (neo), (v) the IRES from encephalomyocarditis virus (EMCV), and (vi) HCV NS3 to NS5B genes that harbor cell culture adaptive mutations (E1202G, T12801, K1846T) and the HCV 3′UTR.
These cell lines were maintained at 37° C., 5% CO2, 100% relative humidity in DMEM (Cat#11965-084, Invitrogen), with 10% fetal calf serum (“FCS”, Invitrogen), 1% non-essential amino acids (Invitrogen), 1% of Glutamax (Invitrogen), 1% of 100× penicillin/streptomycin (Cat#15140-122, Invitrogen) and Geneticin (Cat#10131-027, Invitrogen) at 0.75 mg/ml or 0.5 mg/ml for 11-7 and Huh-luc/neo-ET cells, respectively.
EC50 values of single agent compounds and combinations were determined by HCV RNA detection using quantitative RT-PCR, according to the manufacturer's instructions, with a TAQMAN® One-Step RT-PCR Master Mix Reagents Kit (Cat# AB 4309169, Applied Biosystems) on an ABI Model 7500 thermocycler. The TaqMan primers used for detecting and quantifying HCV RNA were obtained from Integrated DNA Technologies. HCV RNA was normalized to GAPDH RNA levels in drug-treated cells, which was detected and quantified using the Human GAPDH Endogenous Control Mix (Applied Biosystems, AB 4310884E). Total cellular RNA was purified from 96-well plates using the RNAqueous 96 kit (Ambion, Cat#AM1812). Chemical agent cytotoxicity was evaluated using an MTS assay according to the manufacturer's directions (Promega).
Since clinical drug resistance often develops in viral infections following single agent therapies, there is a need to assess the additive, antagonistic, or synergistic properties of combination therapies. We use the HCV replicon system to assess the potential use of the compound of the present invention or in combination therapies with Interferon alpha, cyclosporine analogs and inhibitors targeting other HCV proteins. The acute effects of a single or combinations of drugs are studied in the “Huh-luc/neo-ET” replicon with each chemical agent titrated in an X or Y direction in a 6 point two-fold dilution curve centered around the EC50 of each drug. Briefly, replicon cells are seeded at 7,000 cells per well in 90 ul DMEM (without phenol red, Invitrogen Cat.#31053-036) per well with 10% FCS, 1% non-essential amino acids, 1% of Glutamax and 1% of 100× penicillin/streptomycin and incubated overnight at 37° C., 5% CO2, 100% relative humidity. […]

SMILES | pEC50
COC(=O)N[C@H](C(=O)N1CCC[C@H]1CNc1ncc(C#Cc2ccc(-c3cnc([C@@H]4CCCN4C(=O)[C@@H](NC(=O)OC)C(C)C)[nH]3)cc2)cn1)C(C)C [Example 394] | < 8.00
COC(=O)N[C@H](C(=O)N1CCC[C@@H]1CNc1ncc(-c2ccc3cc(-c4cnc([C@@H]5CCCN5C(=O)[C@@H](NC(=O)OC)C(C)C)[nH]4)ccc3c2)cn1)C(C)C [Example 393] | 8.00 to 9.00
COC(=O)N[C@H](C(=O)N1CCC[C@H]1CNc1nc2ccc(-c3ccc4nc(NC[C@@H]5CCCN5C(=O)[C@@H](NC(=O)OC)C(C)C)sc4c3)cc2s1)C(C)C [Example 377] | < 8.00
COC(=O)N[C@H](C(=O)N1CCC[C@H]1CNc1ncc2cc(-c3ccc(-c4c[nH]c([C@@H]5CCCN5C(=O)[C@@H](NC(=O)OC)C(C)C)n4)cc3)ccc2n1)C(C)C [Example 294] | > 9.00
COC(=O)N[C@H](C(=O)N1CCC(Nc2ncc(-c3ccc(-c4c[nH]c([C@@H]5CCCN5C(=O)[C@@H](NC(=O)OC)C(C)C)n4)cc3)cn2)C1)C(C)C (stereo partly shown) [Example 384] | 8.00 to 9.00
COC(=O)N[C@H](C(=O)N1CCC[C@H]1CNc1nc2ccc(-c3ccc(-c4c[nH]c([C@@H]5CCCN5C(=O)[C@@H](NC(=O)OC)C(C)C)n4)cc3)cc2s1)C(C)C [Example 305] | > 9.00
COC(=O)N[C@H](C(=O)N1CCC[C@H]1CNc1ncc(-c2ccc(-c3cnc(NC[C@@H]4CCCN4C(=O)[C@@H](NC(=O)OC)C(C)C)nc3)cc2)cn1)C(C)C [Example 370] | < 8.00
CCC(CNc1ncc(-c2ccc3cc(-c4c[nH]c([C@@H]5CCCN5C(=O)[C@@H](NC(=O)OC)C(C)C)n4)ccc3c2)cn1)N(C)C(=O)[C@@H](NC(=O)OC)C(C)C (stereo partly shown) [Example 390] | 8.00 to 9.00
COC(=O)N[C@H](C(=O)N1CCC(Nc2ncc(-c3ccc4cc(-c5c[nH]c([C@@H]6CCCN6C(=O)[C@@H](NC(=O)OC)C(C)C)n5)ccc4c3)cn2)C1)C(C)C (stereo partly shown) [Example 382] | 8.00 to 9.00
COC(=O)N[C@H](C(=O)N1CCC[C@H]1CNc1ncc2cc(C#Cc3ccc4[nH]c([C@@H]5CCCN5C(=O)[C@@H](NC(=O)OC)C(C)C)nc4c3)ccc2n1)C(C)C [Example 322] | 8.00 to 9.00
COC(=O)N[C@H](C(=O)N1CCC[C@H]1CNc1ncc(C#Cc2ccc3nc([C@@H]4CCCN4C(=O)[C@@H](NC(=O)OC)C(C)C)[nH]c3c2)cn1)C(C)C [Example 313] | < 8.00
CCC(CNc1ncc(-c2ccc3cc(-c4c[nH]c([C@@H]5CCCN5C(=O)[C@@H](NC(=O)OC)C(C)C)n4)ccc3c2)cn1)NC(=O)[C@@H](NC(=O)OC)C(C)C (stereo partly shown) [Example 388] | < 8.00
COC(=O)N[C@H](C(=O)N1CCC[C@H]1CNc1ccc(-c2ccc3cc(-c4c[nH]c([C@@H]5CCCN5C(=O)[C@@H](NC(=O)OC)C(C)C)n4)ccc3c2)cn1)C(C)C [Example 296] | > 9.00
COC(=O)N[C@H](C(=O)N1CCC[C@H]1CNc1nc2ccc(-c3ccc4cc(-c5c[nH]c([C@@H]6CCCN6C(=O)[C@@H](NC(=O)OC)C(C)C)n5)ccc4c3)cc2s1)C(C)C [Example 386] | > 9.00
COC(=O)N[C@H](C(=O)N1CCC[C@H]1CNc1ncc(-c2ccc3cc(-c4c[nH]c([C@@H]5CCCN5C(=O)[C@@H](NC(=O)OC)C(C)C)n4)ccc3c2)cn1)C(C)C [Example 83] | < 8.00
COC(=O)N[C@H](C(=O)N[C@H]1CCC[C@@H]1Nc1ncc(-c2ccc3cc(-c4c[nH]c([C@@H]5CCCN5C(=O)[C@@H](NC(=O)OC)C(C)C)n4)ccc3c2)cn1)C(C)C (racemic) [373a and 373b] | > 9.00
